# Where two headings read alike, the source gives them in different places.
# Test: Pharmacokinetics of HC-7366 in male and female beagle dogs following IV and oral administration of HC-7366-K (plasma and urine, LC-MS/MS)
# Type: in vivo, Beagle Dog
# Parameters: AUC(0-t)/D: unit not given here
# Conditions: for AUC(0-inf) / AUC(0-t) / FPO / AUC(0-t)/D / t1/2: mean n = 3; for AUC(0-t): t = 48 h; for FPO: based on AUC(0-inf); for Cmax: suspension of Form III; for bioavailability: read-out: Mean oral bioavailability (FPO); for half-life: read-out: terminal half-life (t1/2) (converted); for Emesis: at 1 hour post dose
# Protocol: The objective of this study was to characterize the pharmacokinetics of HC-7366 in male and female beagle dogs following intravenous (IV) and oral (PO) administration of the potassium salt of the compound of formula (I), which may be referred to in this Example as HC-7366-K.
# The IV solution formulation of HC-7366-K contained “5% (v/v) DMSO and 95% (v/v) Captisol (20% w/v) in PBS (pH 7.4)”, and was administered […] dose at 0.5 mg free acid/kg.
# The PO suspension formulation of HC-7366-K is a suspension of Form III of the potassium salt of the compound of formula (I) (see Example 6) and contained “0.5% (w/v) methylcellulose (400 cp) in water”, and was administered orally at 1 mg free acid/kg, 10 mg free acid/kg, 50 mg free acid/kg, 150 mg free acid/kg, respectively.
# After dosing, blood samples were collected at various time points. Plasma and urine was harvested and analysed by LC-MS/MS to characterize the PK profiles of HC-7366.
# HC-7366-K was stored at room temperature. The compound used in this study was HC-7366-K. All doses, concentrations and supporting data are expressed in terms of free acid. The molecular weight conversion factor from HC-7366-K to free acid was 1.11.
# HC-7366-K was formulated as an IV solution at a target dose level of 0.5 mg/mL in “5% (v/v) DMSO and 95% (v/v) Captisol (20% w/v) in PBS (pH 7.4)”.
# HC-7366-K was formulated as a PO suspension of Form III of the potassium salt of the compound of formula (I) (see Example 6) at a target dose concentration of 0.25 mg/mL, 2.5 mg/mL, 12.5 mg/mL and 37.5 mg/mL in “0.5% (w/v) methylcellulose (aq.) (400 cp) in water” respectively.
# The dose was administered via intravenous and oral gavage at the target dose volume of 1, and 4 mL/kg, respectively. All animals had free access to water, were fasted overnight prior to dosing and fed approximately 2 hours after dosing. The IV dose and PO dose at 1 mg/kg were administered to the same dogs as a cross-over design. The PO dose was administered 10 days after the IV dose. The PO doses at 10, 50 and 150 mg/kg were administered to individual animals.
# Following IV administration, blood samples (ca 0.3 mL) were collected from the venepuncture of peripheral veins except the dosing vein. Blood samples were collected pre dose and at 0.083 h, […], 0.5 h, 1 h, 2 h, 4 h, 8 h, […], 30 h, and 48 h post dose.
# Following PO administration, blood samples (ca 0.3 mL) were collected from the venepuncture of peripheral veins. Blood samples were collected pre dose and at 0.25 h, 0.5 h, 1 h, 2 h, 4 h, 8 h, 24 h, 30 h, and 48 h post dose.
# Blood samples were collected into tubes containing K2EDTA as anticoagulant. The acceptable time ranges for blood collection are shown below. […]. Samples were stored in a freezer set to maintain a temperature at or below −80° C. prior to analysis. The residual blood cells were discarded.
# Urine samples were collected on cold packs into clean bottles and the cold packs were checked during the day and at each sampling interval. At the end of the collection interval, the volume of urine was recorded and then each sample was well mixed and maintained on wet ice throughout processing and then stored frozen at […]75±15° C. until analysis.
# The plasma and urine concentration of HC-7366 was determined by protein precipitation with acetonitrile followed by liquid chromatography with mass spectrometric detection (LC MS/MS). Sample preparation was conducted by adding 50 uL plasma or 50 uL urine to 200 uL of acetonitrile containing dexamethasone as an analytical internal standard. There was no formal validation data to support the assay.
# Calibration standards were prepared in male, female beagle dog plasma or urine using HC-7366 Free acid. Calibration standards were freshly prepared on the day of analysis.
# Parameters were estimated using Phoenix (WinNonlin) pharmacokinetic software version 6.1.0 using a non-compartmental approach consistent with IV and PO routes of administration. […]
# [1] = Female Beagle dog, IV 0.5 mg/kg, plasma
# [2] = Female Beagle dog, PO 1 mg/kg, plasma
# [3] = Female Beagle dog, PO 10 mg/kg, plasma
# [4] = Female Beagle dog, PO 50 mg/kg, plasma
# [5] = Female Beagle dog, PO 150 mg/kg
# [6] = Female Beagle dog, PO 150 mg/kg, plasma
# [7] = dog, plasma, female beagle dogs, oral 1 mg/kg
# [8] = dog, Male Beagle dogs, IV 0.5 mg/kg, HC-7366 in plasma
# [9] = dog, Male Beagle dogs, PO 1 mg/kg, HC-7366 in plasma
# [10] = dog, Male Beagle dogs, PO 10 mg/kg, HC-7366 in plasma
# [11] = dog, Male Beagle dogs, PO 50 mg/kg, HC-7366 in plasma
# [12] = dog, Male Beagle dogs, PO 150 mg/kg, HC-7366 in plasma
# [13] = plasma, female beagle dog, oral 10 mg/kg
# [14] = plasma, female beagle dog, oral 50 mg/kg
# [15] = plasma, female beagle dog, oral 150 mg/kg
# [16] = plasma, male beagle dog, oral 1 mg/kg
# [17] = plasma, male beagle dog, oral 10 mg/kg
# [18] = plasma, male beagle dog, oral 50 mg/kg
# [19] = plasma, male beagle dog, oral 150 mg/kg
compound,measurement,setting,value
"CNC(=O)c1ncn2cc(-c3c(F)ccc(NS(=O)(=O)c4cc(Cl)cnc4OC)c3F)ncc12 [HC-7366-K, 6-(3-((5-chloro-2-methoxypyridine)-3-sulfonamido)-2,6-difluorophenyl)-N-methylimidazo[1,5-a]pyrazine-1-carboxamide]",AUC(0-inf),[1],85.7 µg·h/mL
same,AUC(0-t),[1],81.1 µg·h/mL
same,FPO,"Female Beagle dog, PO 1 mg/kg",99%
same,AUC(0-t)/D,"Female Beagle dog, PO 1 mg/kg",156383
same,AUC(0-inf),[2],170 µg·h/mL
same,t1/2,[2],13 h
same,AUC(0-t),[2],156 µg·h/mL
same,FPO,"Female Beagle dog, PO 10 mg/kg",84%
same,AUC(0-t)/D,"Female Beagle dog, PO 10 mg/kg",126414
same,AUC(0-inf),[3],1440 µg·h/mL
same,t1/2,[3],14 h
same,Tmax,"Female Beagle dog, PO 10 mg/kg, range n = 3",0.50 to 1.0 h
same,AUC(0-t),[3],1260 µg·h/mL
same,FPO,"Female Beagle dog, PO 50 mg/kg",63%
same,AUC(0-t)/D,"Female Beagle dog, PO 50 mg/kg",97510
same,AUC(0-inf),[4],5370 µg·h/mL
same,t1/2,[4],14 h
same,AUC(0-t),[4],4880 µg·h/mL
same,FPO,[5],32%
same,AUC(0-t)/D,[5],49629
same,AUC(0-inf),[6],8260 µg·h/mL
same,t1/2,[6],14 h
same,AUC(0-t),[6],7440 µg·h/mL
same,AUC(0-t)/D,"Male Beagle dogs, IV 0.5 mg/kg",155094
same,FPO,"Male Beagle dogs, PO 1 mg/kg",73%
same,AUC(0-t)/D,"Male Beagle dogs, PO 1 mg/kg",116097
same,t1/2,"Male Beagle dogs, PO 10 mg/kg, HC-7366 in plasma",15 h
same,FPO,"Male Beagle dogs, PO 10 mg/kg",83%
same,AUC(0-t)/D,"Male Beagle dogs, PO 10 mg/kg",126074
same,t1/2,"Male Beagle dogs, PO 50 mg/kg, HC-7366 in plasma",17 h
same,FPO,"Male Beagle dogs, PO 50 mg/kg",58%
same,AUC(0-t)/D,"Male Beagle dogs, PO 50 mg/kg",85797
same,t1/2,"Male Beagle dogs, PO 150 mg/kg, HC-7366 in plasma",11 h
same,FPO,"Male Beagle dogs, PO 150 mg/kg",21%
same,AUC(0-t)/D,"Male Beagle dogs, PO 150 mg/kg",34480
same,Tmax,"Male Beagle dogs, PO 150 mg/kg, range n = 3",1.0 to 4.0 h
same,Tmax,"dog, plasma, Male Beagle dogs, PO 1 mg/kg, range n = 3, read-out: tmax",0.25 to 0.5 h
same,Tmax,"dog, plasma, Male Beagle dogs, PO 10 mg/kg, range n = 3, read-out: tmax",0.5 h
same,Tmax,"dog, plasma, Male Beagle dogs, PO 50 mg/kg, range n = 3, read-out: tmax",0.5 to 1 h
same,clearance,"dog, plasma, female Beagle dogs, intravenous 0.5 mg/kg, read-out: Clearance (CL)",5.84 mL/h/kg
same,Vd,"dog, plasma, female Beagle dogs, intravenous 0.5 mg/kg, read-out: volume of distribution at steady state (Vss)",0.084 L/kg
same,Cmax,[7],10.7 µg/mL
same,bioavailability,[7],99%
same,half-life,[7],13 h
same,AUC(0-inf),[8],85.6 µg·h/mL
same,AUC(0-t),[8],77.5 µg·h/mL
same,AUC(0-inf),[9],123 µg·h/mL
same,AUC(0-t),[9],116 µg·h/mL
same,AUC(0-inf),[10],1420 µg·h/mL
same,AUC(0-t),[10],1260 µg·h/mL
same,AUC(0-inf),[11],4930 µg·h/mL
same,AUC(0-t),[11],4290 µg·h/mL
same,AUC(0-inf),[12],5470 µg·h/mL
same,AUC(0-t),[12],5170 µg·h/mL
same,half-life,"dog, female Beagle dogs, intravenous 0.5 mg/kg, plasma HC-7366, mean n=3",12 h
same,half-life,"dog, male beagle dogs, intravenous 0.5 mg/kg, plasma HC-7366, mean n=3",14 h
same,Emesis,"female beagle dog, oral 150 mg/kg",Emesis was observed
same,Emesis,"male beagle dog, oral 150 mg/kg",Emesis was observed
same,gender differences in the PK parameters,male versus female beagle dogs,no notable gender differences
same,dose proportionality of AUC (AUC/D values),"oral, between 1 and 50 mg/kg, beagle dogs",generally increased in proportional to dose level
same,Tmax,"plasma, Female Beagle dog, PO 1 mg/kg, range n = 3, read-out: tmax",1 to 2 h
same,Tmax,"plasma, Female Beagle dog, PO 50 mg/kg, range n = 3, read-out: tmax",2 to 4 h
same,Tmax,"plasma, Female Beagle dog, PO 150 mg/kg, range n = 3, read-out: tmax",0.5 to 1 h
same,Cmax,[13],87 µg/mL
same,Tmax,"plasma, female beagle dog, oral 10 mg/kg, three animals, read-out: time post dose at which Cmax was observed (Tmax)",0.5 to 1 h
same,bioavailability,[13],84%
same,half-life,[13],14 h
same,Cmax,[14],246 µg/mL
same,bioavailability,[14],63%
same,half-life,[14],14 h
same,Cmax,[15],350 µg/mL
same,bioavailability,[15],32%
same,half-life,[15],14 h
same,Cmax,[16],10.2 µg/mL
same,bioavailability,[16],73%
same,half-life,[16],12 h
same,Cmax,[17],94.3 µg/mL
same,bioavailability,[17],83%
same,half-life,[17],15 h
same,Cmax,[18],227 µg/mL
same,bioavailability,[18],58%
same,half-life,[18],17 h
same,Cmax,[19],280 µg/mL
same,Tmax,"plasma, male beagle dog, oral 150 mg/kg, three animals, read-out: time post dose at which Cmax was observed (Tmax)",1 to 4 h
same,bioavailability,[19],21%
same,half-life,[19],11 h
